{
  "source": "paper PMC12743403",
  "about": "“Green-synthesized silver nanoparticles from Camellia sinensis: mechanistic insights into phenolic-mediated multifunctional biological activities” (BMC Plant Biology, 2025)",
  "tested_on": "T1, urease",
  "T1 construct": "gene jack bean urease",
  "settings": "100 mM urea, room temperature, 10 min; reference inhibitor",
  "data": [
    {"smiles": "NC(N)=S", "note": "[Thiourea]", "values": [
      {"measurement": "Urease IC50", "result": "24.5 ± 0.7", "unit": "µg/mL"}
    ]}
  ]
}
